From ChEMBL document CHEMBL1641373, “Trishomocubane as a scaffold for the development of selective dopamine transporter (DAT) ligands” (Bioorg Med Chem Lett, 2011) come the findings set out here.

Assay [1] addresses Sodium-dependent serotonin transporter (Homo sapiens, UniProt P31645). Nature of the assay: Inhibition of SERT.
Assay [2] concerns the target Sodium-dependent dopamine transporter (Homo sapiens, UniProt Q01959). Nature of the assay: Inhibition of DAT.
Assay [3] concerns the target Sodium-dependent noradrenaline transporter (Homo sapiens, UniProt P23975). Nature of the assay: Inhibition of NET.

Chain of Sodium-dependent serotonin transporter (P31645 whole entry): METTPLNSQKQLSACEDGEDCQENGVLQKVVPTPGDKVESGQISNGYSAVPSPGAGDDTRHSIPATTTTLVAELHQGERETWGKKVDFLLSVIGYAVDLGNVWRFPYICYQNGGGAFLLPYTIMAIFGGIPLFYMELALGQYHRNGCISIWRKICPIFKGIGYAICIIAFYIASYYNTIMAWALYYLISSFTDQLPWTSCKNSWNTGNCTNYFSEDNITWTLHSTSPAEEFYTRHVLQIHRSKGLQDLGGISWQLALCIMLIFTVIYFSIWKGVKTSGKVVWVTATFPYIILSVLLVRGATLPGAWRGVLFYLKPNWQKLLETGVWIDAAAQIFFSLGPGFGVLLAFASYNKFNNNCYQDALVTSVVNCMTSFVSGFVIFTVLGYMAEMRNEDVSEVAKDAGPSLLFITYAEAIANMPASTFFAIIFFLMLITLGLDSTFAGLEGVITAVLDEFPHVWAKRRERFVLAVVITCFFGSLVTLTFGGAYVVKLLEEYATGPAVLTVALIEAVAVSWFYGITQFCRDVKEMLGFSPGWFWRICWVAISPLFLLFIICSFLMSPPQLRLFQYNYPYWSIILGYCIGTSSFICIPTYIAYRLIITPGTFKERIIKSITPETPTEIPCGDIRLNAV
Chain of Sodium-dependent noradrenaline transporter (P23975 whole entry): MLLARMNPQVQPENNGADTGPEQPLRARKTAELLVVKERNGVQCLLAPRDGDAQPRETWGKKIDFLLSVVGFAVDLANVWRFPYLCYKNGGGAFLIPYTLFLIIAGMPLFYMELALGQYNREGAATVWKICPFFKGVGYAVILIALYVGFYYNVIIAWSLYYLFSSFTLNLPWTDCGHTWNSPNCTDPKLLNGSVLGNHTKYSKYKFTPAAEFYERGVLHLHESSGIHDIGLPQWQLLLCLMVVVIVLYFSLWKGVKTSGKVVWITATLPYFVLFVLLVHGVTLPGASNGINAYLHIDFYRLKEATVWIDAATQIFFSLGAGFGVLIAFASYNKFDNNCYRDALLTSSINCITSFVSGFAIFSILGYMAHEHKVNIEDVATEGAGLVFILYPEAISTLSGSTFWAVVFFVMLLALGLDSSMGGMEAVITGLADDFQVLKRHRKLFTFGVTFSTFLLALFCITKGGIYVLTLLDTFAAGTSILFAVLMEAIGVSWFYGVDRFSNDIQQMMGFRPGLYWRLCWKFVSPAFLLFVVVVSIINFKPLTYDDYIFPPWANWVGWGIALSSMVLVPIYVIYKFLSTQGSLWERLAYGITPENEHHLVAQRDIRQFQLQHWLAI
Chain of Sodium-dependent dopamine transporter (Q01959 whole entry): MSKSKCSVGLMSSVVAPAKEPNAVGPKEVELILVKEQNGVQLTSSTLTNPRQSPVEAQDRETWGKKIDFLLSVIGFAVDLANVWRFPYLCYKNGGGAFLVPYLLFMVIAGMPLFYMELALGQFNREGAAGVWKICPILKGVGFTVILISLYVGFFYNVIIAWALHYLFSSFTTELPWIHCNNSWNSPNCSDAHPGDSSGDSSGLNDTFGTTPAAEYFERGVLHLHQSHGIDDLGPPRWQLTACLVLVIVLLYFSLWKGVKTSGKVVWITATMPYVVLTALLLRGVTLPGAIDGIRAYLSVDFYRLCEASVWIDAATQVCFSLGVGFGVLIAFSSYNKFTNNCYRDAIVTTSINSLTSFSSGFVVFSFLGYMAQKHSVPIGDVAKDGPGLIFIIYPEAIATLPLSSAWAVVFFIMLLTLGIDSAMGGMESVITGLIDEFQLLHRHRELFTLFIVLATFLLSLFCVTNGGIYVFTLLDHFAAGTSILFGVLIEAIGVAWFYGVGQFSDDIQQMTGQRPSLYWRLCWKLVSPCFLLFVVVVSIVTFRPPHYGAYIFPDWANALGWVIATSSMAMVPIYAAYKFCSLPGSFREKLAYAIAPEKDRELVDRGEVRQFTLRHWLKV

As for `COC(=O)[C@@H]1C2CCC(C[C@@H]1c1ccc(C)cc1)N2C/C=C/CF` (some centres undefined), the IC50 in assay [1] is more than 1000 nM; in assay [2] it was 2.4 nM; in assay [3], more than 1000 nM.
Take `NCCN1[C@@H]2CC[C@H]1C[C@@H](NC(c1ccc(F)cc1)c1ccc(F)cc1)C2`: in assay [2], the Ki turned out to be 12.5 nM.
Regarding `COC(=O)[C@H]1[C@@H](c2ccc(C)cc2)C[C@H]2CC[C@@H]1N2C/C=C/I`, the Ki in assay [1] is 500 nM; in assay [2] it was 17 nM; in assay [3] it was more than 1000 nM.
In the case of `CN1[C@H]2CC[C@@H]1[C@@H](C(=O)N1CCCC1)[C@@H](c1ccc(I)cc1)C2`, the IC50 in assay [1] is 991 nM; in assay [2] it was 0.37 nM; in assay [3], 1730 nM.
In assay [2], `CCCCC1=C(c2ccc(Cl)cc2)C2CCN1CC2` gave a Ki of 14 nM.
For `CN(C)C[C@H]1C2CCC(CC2)[C@H]1c1ccc(Cl)c(Cl)c1`, the Ki in assay [1] turned out to be 57 nM; in assay [2], 7.2 nM; in assay [3], 44 nM.
